Source: patent US20260022098A1, “BULLEYACONITINE A DERIVATIVE WITH ANALGESIC ACTIVITY, AND PREPARATION METHOD AND APPLICATION THEREOF” (priority 2023, published 2026)
Like-named read-outs stand apart in the source and are kept apart here. Marks after values point to notes of the source that are not given here.

Legend:
[1] = test system: LPS-induced RAW 264.7 cells; assay: Griess assay, inhibition of NO release in LPS-induced RAW 264.7 cells; type: cell-based; details: Griess method, compound at 30 M (so in the source), 22 h
Procedure: (§1) The effect of the compound to be tested on viability of RAW 264.7 cells at a concentration of […] was assessed through MTT assay (Methylthiazolyldiphenyl-tetrazolium bromide assay), and the inhibition on NO release in the inflammatory response of LPS-induced RAW 264.7 cells at 30 µM was determined through Griess method. Specific methods were described as follows.
RAW264.7 cells beyond third passage were added to a culture medium and gently pipetted to detach, forming a cell suspension. 10 μL of the cell suspension was applied onto a hemocytometer slide for counting, and cells were seeded into a 96-well plate at a density of 3×10^4 cells per well with 100 μL of the cell suspension per well. After incubated at 37° C. with […] for 24 h, supernatant was removed. The blank group received 100 μL of DMSO (1/1000 dilution) per well, a LPS (lipopolysaccharide) group received 100 μL of DMSO (1/1000 dilution) per well, and the experimental groups received 100 μL of the test samples per well. The LPS group received 1 μg/ml of LPS by […] per well, and the experimental groups received […] of LPS by 3 μg per well. After 22 h, 50 μL of supernatant was transferred into another 96-well plate, added with Griess Reagent I in a NO assay kit by 50 μL per well, then added with Griess Reagent II by 50 μL per well, and subjected to an absorbance test at 562 nm. Nitric oxide (NO) concentration was calculated based on a standard curve, which was specifically as follows: NO inhibition rate (%)=(ODLPS−ODTest)/(ODLPS−ODBlank)×100).

RAW 264.7 cells = assay: MTT assay, viability of RAW 264.7 cells; type: cell-based; details: compound diluted to 30 mol/L (so in the source), 12 h
Procedure: as §1
An MTT solution (5 mg/mL) was prepared with a PBS buffer, filter-sterilized through a 0.22 μm filter membrane, and stored protected from light at low temperature. Each compound was dissolved in DMSO to prepare a 50 mmol/L stock solution, and stored from light at low (frozen) temperature. The stock solution was diluted to 30 mol/L with DMEM (Dulbecco's modified Eagle's medium) containing 10% FBS (fetal bovine serum). RAW264.7 cells beyond third passage were added to a culture medium and gently pipetted to detach, forming a cell suspension. 10 μL of the cell suspension was applied onto a hemocytometer slide for counting, and cells were seeded into 96-well plates at a density of 6×10^3 cells per well with 100 μL of the cell suspension per well. After incubated at 37° C. with 5% CO2 for 24 h, supernatant was removed. A zero-adjustment group (CO group) received 100 μL of medium per well, the blank group (CK group) received 100 μL of DMSO (1/1000 dilution) per well, and the experimental groups received 100 μL of the test samples per well. After 12 h, supernatant was removed, and […] of MTT solution was added into each well at 120 μL per well. After incubated in COz at a constant temperature for 4 h, supernatant was removed, and DMSO was added into each well by 150 μL per well. The mixture was shaken at 50 r/min for 10 min and subjected to an absorbance test at 492 nm. Relative cell viability (x) was calculated through a formula as follows: relative cell viability (%)=(ODTest−ODCO)/(ODCK−ODCO)×100%.

Kunming mice [2] = assay: Acute toxicity / median lethal dose (LD50) determination, subcutaneous injection; type: in vivo; parameters: key to Acute toxicity: if death occurred, (+) represented as positive; if no death occurred, (−) represented as negative; details: mice administered 20 mg/kg subcutaneously, presence of death within 24 h
In short: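 Kunming mice (22±2 g, 1:1 male:female, fasted 12 h), 10 per group, given compound subcutaneously at 0.1 mL/10 g in saline after 1:1 molar dissolution in 0.1 mol/L HCl. At least 5 proportional dose groups set from a 20 mg/kg pilot; 24 h survival, LD50 by Probit regression.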

Kunming mice [3] = assay: Analgesic activity by acetic acid-induced writhing method (writhing inhibition rate, ED50); type: in vivo; details: Mus musculus, sc, read-out: Analgesia rate (%) ± SEM
In short: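 Kunming mice (22±2 g, 1:1 sex, 12 h fasted, 10/group) got compound s.c. (dissolved 1:1 molar with 0.1 mol/L HCl, diluted in saline); 0.7% acetic acid i.p. 15 min later, writhes counted over 15 min. Inhibition rate vs saline blank; ED50 by Probit regression over ≥5 doses.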

[4] = dosing concentration 0.05 mg/kg, subcutaneous, acetic acid-induced writhing, mice
[5] = dosing concentration 0.5 mg/kg, subcutaneous, acetic acid-induced writhing, mice

| Compound | Inflammatory NO inhibition rate [1] [%] | RAW cell viability (RAW 264.7 cells) | Acute toxicity (Kunming mice [2]) | inhibition in vivo at 0.05 mg/kg (Kunming mice [3]; [4]) [%] | inhibition in vivo at 0.5 mg/kg (Kunming mice [3]; [5]) [%] | inhibition in vivo at 0.05 mg/kg (Kunming mice [3]) [%] | inhibition in vivo at 0.5 mg/kg (Kunming mice [3]) [%] |
| --- | --- | --- | --- | --- | --- | --- | --- |
| Cc1ccc(-c2cc(C(F)(F)F)nn2-c2ccc(S(N)(=O)=O)cc2)cc1 [Celecoxib, reference compound] | 74 ± 2.2 | 93.09 ± 2.14 ns % |  |  |  |  |  |
| CCN1C[C@]2(COC)CC[C@H](OC)[C@@]34C5C[C@]6(OC(=O)c7ccco7)[C@@H](OC)C[C@@](OC(C)=O)(C5[C@H]6OC(=O)c5ccc(OC)cc5)C([C@H](OC)C23)[C@@H]14 (stereo partly drawn) [Compound 12] | 17 ± 5.14 | 119.75 ± 1.11***^ % | − | 45.7 ± 0.6 | 54.2 ± 1.4 |  |  |
| CCO[C@]12C[C@H](OC)[C@@]3(OC(=O)C4CCCCC4)CC(C1[C@H]3OC(=O)c1ccc(OC)cc1)[C@]13C4[C@@H](OC)C2[C@H]1N(CC)C[C@]4(COC)CC[C@@H]3OC (stereo partly drawn) [Compound 14] |  | 13.36 ± 0.9***^ % | − | 40.3 ± 1.7 | 44.4 ± 2.1 |  |  |
| CCO[C@]12C[C@H](OC)[C@@]3(OC(=O)c4cccs4)CC(C1[C@H]3OC(=O)c1cccs1)[C@]13C4[C@@H](OC)C2[C@H]1N(CC)C[C@]4(COC)CC[C@@H]3OC (stereo partly drawn) [Compound 17] | 47 ± 3.49 | 87.25 ± 2.09 ns % | − | 44.44 ± 0.4 | 54.7 ± 1.5 |  |  |
| CCO[C@]12C[C@H](OC)[C@@]3(OC(=O)C4CCOCC4)CC(C1[C@H]3OC(=O)c1ccc(OC)cc1)[C@]13C4[C@@H](OC)C2[C@H]1N(CC)C[C@]4(COC)CC[C@@H]3OC (stereo partly drawn) [Compound 24] | 8 ± 2.69 | 94.97 ± 7.74 ns % | − | 46.1 ± 1.7 | 50.9 ± 1.7 |  |  |
| CCO[C@]12C[C@H](OC)[C@@]3(OC(=O)c4cccnc4)CC(C1[C@H]3OC(=O)c1ccc(OC)cc1)[C@]13C4[C@@H](OC)C2[C@H]1N(CC)C[C@]4(COC)CC[C@@H]3OC (stereo partly drawn) [Compound 28] |  | 83.03 ± 4.69**^ % | − | 36.1 ± 2.1 |  |  |  |
| CCO[C@]12C[C@H](OC)[C@@]3(OC(=O)c4ccc([N+](=O)[O-])cc4)CC(C1[C@H]3OC(=O)c1ccc([N+](=O)[O-])cc1)[C@]13C4[C@@H](OC)C2[C@H]1N(CC)C[C@]4(COC)CC[C@@H]3OC (stereo partly drawn) [Compound 38] | 23 ± 5.6 | 99.37 ± 10.29 ns % | − |  |  | 42.4 ± 1.5 | 56.2 ± 1 |
| CCO[C@]12C[C@H](OC)[C@@]3(OC(=O)c4ccc(F)cc4)CC(C1[C@H]3OC(=O)c1ccc(F)cc1)[C@]13C4[C@@H](OC)C2[C@H]1N(CC)C[C@]4(COC)CC[C@@H]3OC (stereo partly drawn) [Compound 59] |  | 7.00 ± 1.38 % | − | 43.5 ± 2.5 | 57.6 ± 0.9 |  |  |
| CCN1C[C@]2(COC)CC[C@H](OC)[C@@]34C5C[C@]6(OC(=O)C(C)C)[C@@H](OC)C[C@@](OC(C)=O)(C5[C@H]6OC(=O)c5ccc(OC)cc5)C([C@H](OC)C23)[C@@H]14 (stereo partly drawn) [Compound 82] |  |  | − |  |  | 33.3 ± 1.5 |  |
| CCN1C[C@]2(COC)CC[C@H](OC)[C@@]34C5C[C@]6(OC(=O)c7ccc(Cl)cc7)[C@@H](OC)C[C@@](OC(C)=O)(C5[C@H]6OC(=O)c5ccc(OC)cc5)C([C@H](OC)C23)[C@@H]14 (stereo partly drawn) [Compound 84] |  |  | − |  |  | 27 ± 1.4 |  |
| C/C=C/C(=O)O[C@@H]1C2C3C[C@]1(OC(=O)/C=C/C)[C@@H](OC)C[C@]2(OCC)C1[C@H](OC)C2[C@@]4(COC)CC[C@H](OC)[C@@]32[C@@H]1N(CC)C4 (stereo partly drawn) [Compound 85] |  |  | − |  |  | 22.4 ± 3.3 |  |
| C/C=C/C(=O)O[C@]12CC3C([C@H]1OC(=O)c1ccc(OC)cc1)[C@](OCC)(C[C@@H]2OC)C1[C@H](OC)C2[C@@]4(COC)CC[C@H](OC)[C@@]32[C@@H]1N(CC)C4 (stereo partly drawn) [Compound 86] |  |  | − |  |  | 22.8 ± 1.8 |  |
| C/C=C/C(=O)O[C@]12CC3C([C@H]1OC(=O)c1ccc(OC)cc1)[C@](OC(C)=O)(C[C@@H]2OC)C1[C@H](OC)C2[C@@]4(COC)CC[C@H](OC)[C@@]32[C@@H]1N(CC)C4 (stereo partly drawn) [Compound 87] |  |  | − |  |  | 17.3 ± 3.1 |  |
| CCO[C@]12C[C@H](OC)[C@@]3(OC(=O)CC(C)(C)C)CC(C1[C@H]3OC(=O)c1ccc(OC)cc1)[C@@]13C4[C@@H]2[C@H](OC)C1[C@@](COC)(CC[C@@H]3OC)CN4CC (stereo partly drawn) [Compound 89] |  |  | − | 33.7 ± 2.4 |  |  |  |
| CCO[C@]12C[C@H](OC)[C@@]3(OC(=O)c4ccc(Br)cc4)CC(C1[C@H]3OC(=O)c1ccc(OC)cc1)[C@]13C4[C@@H](OC)C2[C@H]1N(CC)C[C@]4(COC)CC[C@@H]3OC (stereo partly drawn) [Compound 91] |  |  | − |  |  | 31.4 ± 1.5 |  |
| CCN1C[C@]2(COC)CC[C@H](OC)[C@@]34C5C[C@]6(OC(=O)c7ccc(Br)cc7)[C@@H](OC)C[C@@](OC(C)=O)(C5[C@H]6OC(=O)c5ccc(OC)cc5)C([C@H](OC)C23)[C@@H]14 (stereo partly drawn) [Compound 92] |  |  | − |  |  | 4.12 ± 1.7 |  |
| CCO[C@]12C[C@H](OC)[C@@]3(OC(=O)Cc4cccs4)CC(C1[C@H]3OC(=O)Cc1cccs1)[C@]13C4[C@@H](OC)C2[C@H]1N(CC)C[C@]4(COC)CC[C@@H]3OC (stereo partly drawn) [Compound 93] |  |  | − |  |  | 10.5 ± 2.3 |  |
| CCO[C@]12C[C@H](OC)[C@@]3(OC(=O)c4ccc(OC(F)(F)F)cc4)CC(C1[C@H]3OC(=O)c1ccc(OC(F)(F)F)cc1)[C@]13C4[C@@H](OC)C2[C@H]1N(CC)C[C@]4(COC)CC[C@@H]3OC (stereo partly drawn) [Compound 94] |  |  | − |  |  | 0 |  |
| CCO[C@]12C[C@H](OC)[C@@]3(OC(=O)c4cccc(C#N)c4)CC(C1[C@H]3OC(=O)c1cccc(C#N)c1)[C@]13C4[C@@H](OC)C2[C@H]1N(CC)C[C@]4(COC)CC[C@@H]3OC (stereo partly drawn) [Compound 95] |  |  | − |  |  | 23.8 ± 1.1 |  |
| CCO[C@]12C[C@H](OC)[C@@]3(OC(=O)c4cc([N+](=O)[O-])cc([N+](=O)[O-])c4)CC(C1[C@H]3OC(=O)c1cc([N+](=O)[O-])cc([N+](=O)[O-])c1)[C@]13C4[C@@H](OC)C2[C@H]1N(CC)C[C@]4(COC)CC[C@@H]3OC (stereo partly drawn) [Compound 96] |  |  | − |  |  | 30.1 ± 1.3 |  |
